Columns and labels:
Test in all cases: SILAC RP-ABPP
Assay type in all cases: cell-based
[1] = molecular target: T1, KEAP1 Kelchlike ECHassociated protein 1 (Q14145) (Homo sapiens, UniProt Q14145); conditions: SILAC H/L
T1 construct: shared by both the endogenous and recombinant forms of these proteins; endogenous in cells; host or cells: HEK293T and MDA-MB-231

[2] = molecular target: T2, APLP2 Amyloidlike protein 2 (Q06481) (Homo sapiens, UniProt Q06481); conditions: SILAC H/L
T2 construct: shared by both the endogenous and recombinant forms of these proteins; endogenous in cells; host or cells: HEK293T and MDA-MB-231

[3] = molecular target: T3, LEPRE1 Prolyl 3hydroxylase 1 (Q32P28) (Homo sapiens, UniProt Q32P28); conditions: SILAC H/L, MDA-MB-231
T3 construct: In Situ Labelling of Cells with Hydrazine Probes for MS Experiments; endogenous in cells
T3 sequence (Q32P28 23-736): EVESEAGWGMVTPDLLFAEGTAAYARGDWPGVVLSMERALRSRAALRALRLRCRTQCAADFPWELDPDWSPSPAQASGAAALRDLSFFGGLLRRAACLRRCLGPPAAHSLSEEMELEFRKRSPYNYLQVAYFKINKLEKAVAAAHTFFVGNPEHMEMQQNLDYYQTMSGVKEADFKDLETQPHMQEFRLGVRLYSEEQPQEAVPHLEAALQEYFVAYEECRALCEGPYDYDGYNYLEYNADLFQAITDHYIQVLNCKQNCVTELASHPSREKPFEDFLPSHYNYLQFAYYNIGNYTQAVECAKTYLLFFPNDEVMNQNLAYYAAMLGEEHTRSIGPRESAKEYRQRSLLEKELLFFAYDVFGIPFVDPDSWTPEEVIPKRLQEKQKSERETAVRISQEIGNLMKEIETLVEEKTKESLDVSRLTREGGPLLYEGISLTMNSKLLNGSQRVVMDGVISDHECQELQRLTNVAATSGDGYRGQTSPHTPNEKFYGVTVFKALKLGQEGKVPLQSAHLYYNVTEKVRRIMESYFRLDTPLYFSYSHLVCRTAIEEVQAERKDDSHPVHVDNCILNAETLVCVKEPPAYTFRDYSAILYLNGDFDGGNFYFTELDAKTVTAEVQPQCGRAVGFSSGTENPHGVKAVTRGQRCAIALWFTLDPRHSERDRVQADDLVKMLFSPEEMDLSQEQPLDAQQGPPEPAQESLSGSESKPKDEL

[4] = molecular target: T4, ALDH1B1 Aldehyde dehydrogenase X (P30837) (Homo sapiens, UniProt P30837); conditions: SILAC H/L, HEK293T
T4 construct: shared by both the endogenous and recombinant forms of these proteins; endogenous in cells; host or cells: HEK293T and MDA-MB-231
T4 sequence (P30837 18-517): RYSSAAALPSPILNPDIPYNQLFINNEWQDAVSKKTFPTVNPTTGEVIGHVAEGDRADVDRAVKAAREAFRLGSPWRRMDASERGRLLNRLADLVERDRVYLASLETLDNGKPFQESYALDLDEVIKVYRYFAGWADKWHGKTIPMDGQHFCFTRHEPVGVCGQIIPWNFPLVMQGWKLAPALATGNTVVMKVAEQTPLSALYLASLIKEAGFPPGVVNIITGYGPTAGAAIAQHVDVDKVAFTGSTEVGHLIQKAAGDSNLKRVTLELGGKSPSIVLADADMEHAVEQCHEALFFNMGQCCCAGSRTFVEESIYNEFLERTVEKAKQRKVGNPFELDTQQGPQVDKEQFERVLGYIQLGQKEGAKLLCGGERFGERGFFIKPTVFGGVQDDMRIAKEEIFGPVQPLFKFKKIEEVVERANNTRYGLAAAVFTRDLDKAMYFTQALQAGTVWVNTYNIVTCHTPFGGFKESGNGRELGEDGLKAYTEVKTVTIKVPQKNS

T2 sequence (Q06481 32-763): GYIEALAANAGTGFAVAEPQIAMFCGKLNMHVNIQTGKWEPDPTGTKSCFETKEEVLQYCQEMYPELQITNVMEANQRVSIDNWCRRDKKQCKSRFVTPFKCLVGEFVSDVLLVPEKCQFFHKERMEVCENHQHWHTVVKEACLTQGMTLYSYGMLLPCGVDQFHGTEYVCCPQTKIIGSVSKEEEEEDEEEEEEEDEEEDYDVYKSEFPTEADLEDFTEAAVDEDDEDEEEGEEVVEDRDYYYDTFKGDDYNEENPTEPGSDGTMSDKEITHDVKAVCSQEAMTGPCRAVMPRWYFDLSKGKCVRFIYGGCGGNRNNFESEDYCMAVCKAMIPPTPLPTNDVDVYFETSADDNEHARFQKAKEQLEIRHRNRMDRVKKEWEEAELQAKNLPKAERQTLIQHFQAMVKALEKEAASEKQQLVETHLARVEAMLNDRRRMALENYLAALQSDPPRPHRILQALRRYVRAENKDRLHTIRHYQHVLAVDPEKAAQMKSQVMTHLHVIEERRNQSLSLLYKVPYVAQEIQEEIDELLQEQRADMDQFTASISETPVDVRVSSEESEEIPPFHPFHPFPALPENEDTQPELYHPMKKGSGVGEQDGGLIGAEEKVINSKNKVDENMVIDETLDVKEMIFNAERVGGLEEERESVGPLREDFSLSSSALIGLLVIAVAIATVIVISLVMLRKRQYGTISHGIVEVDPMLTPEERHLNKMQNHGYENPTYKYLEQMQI
T1 sequence (Q14145 whole entry): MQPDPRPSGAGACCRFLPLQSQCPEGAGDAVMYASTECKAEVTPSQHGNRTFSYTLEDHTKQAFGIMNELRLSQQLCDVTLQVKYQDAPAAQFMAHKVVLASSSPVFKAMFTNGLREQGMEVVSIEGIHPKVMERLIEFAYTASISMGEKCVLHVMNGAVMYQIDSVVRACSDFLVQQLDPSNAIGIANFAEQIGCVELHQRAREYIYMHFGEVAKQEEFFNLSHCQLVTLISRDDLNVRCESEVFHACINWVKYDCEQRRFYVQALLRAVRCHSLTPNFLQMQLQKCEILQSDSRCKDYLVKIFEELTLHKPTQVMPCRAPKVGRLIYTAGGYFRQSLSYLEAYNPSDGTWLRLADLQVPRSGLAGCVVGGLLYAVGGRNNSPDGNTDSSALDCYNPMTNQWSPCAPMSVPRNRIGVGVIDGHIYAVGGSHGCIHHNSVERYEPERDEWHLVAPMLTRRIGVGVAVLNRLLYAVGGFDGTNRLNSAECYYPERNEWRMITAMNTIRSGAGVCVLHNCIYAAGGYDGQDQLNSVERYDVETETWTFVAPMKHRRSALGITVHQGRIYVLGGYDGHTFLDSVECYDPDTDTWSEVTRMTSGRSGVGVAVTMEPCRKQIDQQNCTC

| enrichment ratioavg ([1]; probe 2 1 mM 0.5 h vs probe 4, MDA-MB-231) | competition ratioavg ([1]; probe 2 vs probe 2+10x probe 4, MDA-MB-231) | enrichment ratioavg ([2]; probe 2 1 mM 0.5 h vs probe 4, single experiment, cell line not given) | enrichment ratioavg ([3]; probe 2 1 mM 0.5 h vs probe 4) | competition ratioavg ([3]; probe 2 vs probe 2+10x probe 4) | enrichment ratioavg ([4]; probe 2 1 mM 0.5 h vs probe 4) | competition ratioavg ([4]; probe 2 vs probe 2+10x probe 4) | SMILES | enrichment ratioavg ([1]; probe 1 3 mM 0.5 h vs probe 3, HEK293T) | competition ratioavg ([1]; probe 1 vs probe 1+10x probe 3, HEK293T) | enrichment ratioavg ([2]; probe 1 3 mM 0.5 h vs probe 3, MDA-MB-231) | competition ratioavg ([2]; probe 1 vs probe 1+10x probe 3, MDA-MB-231) | enrichment ratioavg ([3]; probe 1 3 mM 0.5 h vs probe 3) | competition ratioavg ([3]; probe 1 vs probe 1+10x probe 3) | enrichment ratioavg ([4]; probe 1 3 mM 0.5 h vs probe 3) | competition ratioavg ([4]; probe 1 vs probe 1+10x probe 3) |
| --- | --- | --- | --- | --- | --- | --- | --- | --- | --- | --- | --- | --- | --- | --- | --- |
| – | – | – | – | – | – | – | C#CCNN.Cl [probe 1, prop-2-yn-1-ylhydrazine hydrochloride] | 17 | 20 | 19 | 7 | 8 | 3 | 6 | 3 |
| 12 | 3 | 20 | 8 | 2 | 11 | 5 | C#CCCNC(=O)c1ccc(NN)cc1.Cl [probe 2, N-(but-3-yn-1-yl)-4-hydrazinylbenzamide hydrochloride] | – | – | – | – | – | – | – | – |
